According to ChEMBL document CHEMBL5331141:
Activity calls are given as the source filed them. No cut-off for these calls is given here.

System: HEK293
Assay: Effect on HEK293 cells lacking human mu opioid receptor assessed as inhibition of cAMP accumulation at 1 uM
Type: functional, cell-based

| Compound | Activity |
| --- | --- |
| C=C(C)[C@@H]1CCC(C)=C[C@H]1c1c(O)cc(CCC)cc1O | inactive |
| C=C(C)[C@@H]1CCC(C)=C[C@H]1c1c(O)cc(CCCCC)cc1O | inactive |
| C=CCN1CC[C@]23c4c5ccc(O)c4O[C@H]2C(=O)CC[C@@]3(O)[C@H]1C5 | inactive |
